{"source": "patent US11129861B2", "about": "“Methods for treating inflammatory diseases” (OKCHUNDANG CO., LTD., priority 2017, dated 2021)", "key": {"[1]": {"test": "Body weight measurements, antitussive assay", "type": "in vivo, mice", "details": "50 mg/kg orally", "description": "One-hundred thirty two 6-week male SPF/VAF CrljOri:CD1 [ICR] mice (OrientBio, Seungnam, Korea; body weight ranged in 29-32 g upon receipt) were prepared, and eight groups of 10 mice each were selected based on the body weights at 7 days after acclimatization based on the body weights (intact control: 34.30±1.74 g, ranged in 31.8-37.0 g; NH4OH treated mice: 34.17±1.32 g, ranged in 31.0-37.3 g), as follows.\nSKOG were suspended in distilled water as 40, 20 and 10 mg/ml concentration, and orally administered in a volume of 10 ml/kg (as equivalence to 400, 200 and 100 mg/kg), once a day for 11 days before NH4OH exposure. In addition, AR and KOG were also suspended in distilled water as 40 mg/ml concentration, and orally administered in a volume of 10 ml/kg (as equivalence to 400, 200 and 100 mg/kg), once a day for 11 days before NH4OH exposure. TB was also dissolved in distilled water as 5 mg/ml concentrations, and also orally administered in a volume of 10 ml/kg (as equivalence to 50 mg/kg), once a day for 11 days before NH4OH exposure. In intact vehicle and NH4OH control mice, distilled water 10 ml/kg was orally administered, instead of AR, KOG, SKOG or TB to provide same restrain stresses, in the present experiment.\nChanges of body weight were measured at once a day from 1 day before initial to end of last 11th oral administration of AR, KOG, SKOG or TB using an automatic laboratory animal weighing electronic balance (Precisa Instrument, Dietikon, Switzland). Animals were overnight fasted (about 18 hours, water was not restricted) before initial test substance administration and sacrifice to reduced individual differences from feeding, and also to reduce the individual body weight differences at start of experiment, the body weight gains during 11 days of oral administration of AR, KOG, SKOG or TB were calculated as follow Equation [1], in the current experiment. Body weight gains during 11 days of oral administration of test substances[B−A]=Body weights at last administration[B]−Body weights at first administration[A] Equation [1]"}, "[2]": {"test_system": "NH4OH exposured mice", "test": "Antitussive assay: NH4OH-induced coughing responses", "type": "in vivo", "details": "50 mg/kg orally, 11 days; compared with NH4OH control mice", "description": "NH4OH treated mice: 34.17±1.32 g, ranged in 31.0-37.3 g), as follows. SKOG were suspended in distilled water as 40, 20 and 10 mg/ml concentration, and orally administered in a volume of 10 ml/kg (as equivalence to 400, 200 and 100 mg/kg), once a day for 11 days before NH4OH exposure. In addition, AR and KOG were also suspended in distilled water as 40 mg/ml concentration, and orally administered in a volume of 10 ml/kg (as equivalence to 400, 200 and 100 mg/kg), once a day for 11 days before NH4OH exposure. TB was also dissolved in distilled water as 5 mg/ml concentrations, and also orally administered in a volume of 10 ml/kg (as equivalence to 50 mg/kg), once a day for 11 days before NH4OH exposure. In intact vehicle and NH4OH control mice, distilled water 10 ml/kg was orally administered, instead of AR, KOG, SKOG or TB to provide same restrain stresses, in the present experiment. Coughing was induced by single inhalation of 25% NH4OH (Sigma-Aldrich, St. […] Individual intact vehicle control mouse was exposured to 0.3 ml of saline contained 1,000 ml glass Erlenmeyer flask for 45 sec, instead of NH4OH, in this experiment. The criteria to define cough in mice is that opening the mouth accompanying sound of coughing, contraction of thoracic and abdomen muscles, and a jerking of the front body."}, "[3]": {"test_system": "xylene topically applied mice", "test": "Anti-inflammatory assay: ear histopathology", "type": "in vivo", "details": "50 mg/kg orally, 11 days; xylene topically applied mice", "protocol": "AR, KOG and SKOG were orally administered as same as antitussive and expectorant assays, once a day for 11 days before xylene topical applications. In addition, DEXA-water soluble granules were dissolved indistilled water as 1.5 mg/ml concentrations (0.1 mg/ml based on DEXA itself), and also orally administered in a volume of 10 ml/kg (as equivalence to 1 mg/kg based on DEXA itself), once a day for 11 days before xylene topical applications. In intact vehicle and xylene control mice, distilled water 10 ml/kg was orally administered, instead of AR, KOG, SKOG or DEXA to provide same restrain stresses, in the present experiment.\nAcute inflammations were induced by single topical application of 0.03 ml of xylene (Duksan Pure Chemical Co. Ltd., Ansan, Korea) to the anterior surface of the right ear at 1 hour after last 11th test substance administration, as described previously with some modifications. Equal volume of saline was topically applied in intact vehicle mouse ears, instead of xylene, in our experiment.\nAfter ear weight measurement, individual ear samples were fixed in 10% NBF, and crossly trimmed. Then embedded in paraffin, sectioned (3˜4 μm) and stained with Hematoxylin and eosin (H&E) for general histopathology or toluidine blue for mast cells, and after that the histopathological profiles of each sample were observed under light microscope. To more detail changes, mean total, epidermis and dermis thicknesses of the ear anterior surface, numbers of infiltrated inflammatory cells and mast cells on the dermis of ear (cells/mm^2), collagen occupied region percentages on the dermis (%/mm2) were analyzed using a computer assisted image analysis program, according to previously established methods, respectively. The histopathologist was blinds to group distribution when this analysis was made, and at least five repeated measurements in same histological specimens prepared were considered to calculate each mean histomorphometrical value, whenever possible, in this histopathological evaluation."}, "[4]": {"test_system": "NH4OH exposured mice", "test": "Antitussive assay: trachea and lung histopathology", "type": "in vivo", "details": "50 mg/kg orally, 11 days", "description": "SKOG were suspended in distilled water as 40, 20 and 10 mg/ml concentration, and orally administered in a volume of 10 ml/kg (as equivalence to 400, 200 and 100 mg/kg), once a day for 11 days before NH4OH exposure. In addition, AR and KOG were also suspended in distilled water as 40 mg/ml concentration, and orally administered in a volume of 10 ml/kg (as equivalence to 400, 200 and 100 mg/kg), once a day for 11 days before NH4OH exposure. TB was also dissolved in distilled water as 5 mg/ml concentrations, and also orally administered in a volume of 10 ml/kg (as equivalence to 50 mg/kg), once a day for 11 days before NH4OH exposure. In intact vehicle and NH4OH control mice, distilled water 10 ml/kg was orally administered, instead of AR, KOG, SKOG or TB to provide same restrain stresses, in the present experiment. After video image acquirement, some parts of individual lung (left lateral lobes) and trachea (3 mm from thyroid cartilages) were sampled and fixed in 10% neutral buffered formalin (NBF), and crossly trimmed. Then embedded in paraffin, sectioned (3˜4 μm) and stained with Hematoxylin and eosin (H&E) for general histopathology or toluidine blue for mast cells, and after that the histopathological profiles of each sample were observed under light microscope (Model Eclipse 80i, Nikon, Tokyo, Japan). […] The histopathologist was blinds to group distribution when this analysis was made, and at least five repeated measurements in same histological specimens prepared were considered to calculate each mean histomorphometrical value, whenever possible, in this histopathological evaluation (FIG. 4)."}, "[5]": {"details": "compared with NH4OH control mice"}}, "note": "Marks after values point to notes of the source that are not given here."}
{"smiles": "Cn1cnc2c1c(=O)[nH]c(=O)n2C", "note": "[TB, theobromine]", "values": [{"measurement": "Body weight gains (g) [B − A]", "setting": "[1]; 11 days, NH4OH exposured mice", "result": "1.71 ± 0.97", "unit": "g"}, {"measurement": "Body weights (g) at test material administration First [A]", "setting": "[1]; 11 days, NH4OH exposured mice", "result": "29.23 ± 1.49", "unit": "g"}, {"measurement": "Body weights (g) at test material administration Last [B]", "setting": "[1]; 11 days, NH4OH exposured mice", "result": "30.94 ± 1.77", "unit": "g"}, {"measurement": "body weight gains during 11 days, change", "setting": "[1]; [5]", "result": 2.40, "unit": "%"}, {"measurement": "Mean numbers of coughing responses during 6 min after 45 sec exposure of NH4OH, change", "setting": "[2]", "result": "−59.04", "unit": "%"}, {"measurement": "Cells Inflammatory (ear dermis)", "setting": "[3]", "result": "10.10 ± 10.54^fh Numbers/mm^2"}, {"measurement": "Cells Mast (ear dermis)", "setting": "[3]", "result": "61.30 ± 12.65^c Numbers/mm^2"}, {"measurement": "Collagen fiber", "setting": "[3]", "result": "77.43 ± 12.79^h %/mm^2 of dermis"}, {"measurement": "Thickness Dermis (ear)", "setting": "[3]", "result": "52.33 ± 13.72^h μm"}, {"measurement": "Thickness Epidermis (ear)", "setting": "[3]", "result": "8.50 ± 1.65", "unit": "μm"}, {"measurement": "Thickness Total (ear)", "setting": "[3]", "result": "99.55 ± 9.57^h μm"}, {"measurement": "Cells Inflammatory (trachea)", "setting": "[4]; NH4OH exposured mice", "result": "167.40 ± 40.26^hi Numbers/mm^2"}, {"measurement": "Cells Mast (trachea)", "setting": "[4]; NH4OH exposured mice", "result": "14.30 ± 4.60^hi Numbers/mm^2"}, {"measurement": "Diameter of lumen (trachea)", "setting": "[4]; NH4OH exposured mice", "result": "860.11 ± 100.75^ac μm"}, {"measurement": "Thickness Epithelium (trachea)", "setting": "[4]; NH4OH exposured mice", "result": "24.21 ± 4.36^hi μm"}, {"measurement": "Thickness Submucosa (trachea)", "setting": "[4]; NH4OH exposured mice", "result": "47.31 ± 11.39^hi μm"}, {"measurement": "Thickness Total wall (trachea)", "setting": "[4]; NH4OH exposured mice", "result": "191.23 ± 10.24^hi μm"}, {"measurement": "Alveolar surface area", "setting": "[4]; NH4OH exposured mice, lung", "result": "51.13 ± 5.95^ac %"}, {"measurement": "Septum thickness", "setting": "[4]; NH4OH exposured mice, lung", "result": "30.53 ± 10.06^gh μm"}, {"measurement": "inflammatory cells (alveolar septum)", "setting": "[4]; NH4OH exposured mice, lung", "result": "492.00 ± 114.18^gh numbers/mm^2"}, {"measurement": "Mean ASA, change", "setting": "[4]; [5]", "result": 65.26, "unit": "%"}, {"measurement": "Mean diameters of trachea lumen, change", "setting": "[4]; [5]", "result": 30.60, "unit": "%"}, {"measurement": "Mean numbers of infiltrated inflammatory cells on the alveolar septum, change", "setting": "[4]; [5]", "result": "−73.92", "unit": "%"}, {"measurement": "Mean numbers of infiltrated inflammatory cells on the trachea, change", "setting": "[4]; [5]", "result": "−62.74", "unit": "%"}, {"measurement": "Mean numbers of infiltrated mast cells on the trachea, change", "setting": "[4]; [5]", "result": "−63.05", "unit": "%"}, {"measurement": "Mean thicknesses of alveolar septum, change", "setting": "[4]; [5]", "result": "−57.84", "unit": "%"}, {"measurement": "Mean thicknesses of trachea epithelium, change", "setting": "[4]; [5]", "result": "−35.48", "unit": "%"}, {"measurement": "Mean thicknesses of trachea submucosa, change", "setting": "[4]; [5]", "result": "−47.27", "unit": "%"}, {"measurement": "Mean thicknesses of trachea wall, change", "setting": "[4]; [5]", "result": "−13.23", "unit": "%"}]}
